According to patent publication US8546389B2 (priority 2010, dated 2013):
Read-outs that look alike come from different tables or passages of the source.

Legend:
[1] = system: subgenomic genotype 2a replicon cell line; test: HCV replicon assay, genotype 2a; type: cell-based, HCV genotype 2a
Experimental: (§1) A genotype 1b (Con 1) subgenomic replicon cell line based on Blight et al., Science 2000 290: 1972-1974, modified to express a Renilla luciferase reporter gene was used to assess antiviral activity of test compounds. Cell cultures were maintained in a sub-confluent state in DMEM with glutamine, 10% heat-inactivated foetal bovine serum (FBS) and G418 (Geneticin®).
(§2) For assay, cells were seeded at a density of 7000 cells/well into 96 well tissue culture trays in culture media lacking G418. Compounds were tested in a three fold dilution series, for example starting from 50 uM. After 72 hours incubation at 37° C. and 5% CO2, Renilla luciferase activity was quantified via the Promega Renilla Luciferase or Renilla-Glo™ Luciferase Assay Systems (Promega corporation. The same method was employed for replicon assays using subgenomic genotype 1a and 2a replicon cell lines with a seeding cell density of 5000 cells/well for the 2a cell lines.
(§3) The compound concentration that reduced luciferase activity by 50% (EC50) was calculated using non-linear regression.

[2] = system: subgenomic genotype 1a replicon cell line; test: HCV replicon assay, genotype 1a; type: cell-based, HCV genotype 1a
Experimental: as §1, §2, §3

[3] = system: genotype 1b (Con 1) subgenomic replicon cell line; test: HCV replicon assay, genotype 1b (Renilla luciferase); type: cell-based, HCV genotype 1b (Con 1); details: genotype 1b replicon
In short: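 Subgenomic replicon cells expressing Renilla luciferase (1b Con1; 1a and 2a lines by the same method) seeded at 7000 cells/well (5000 for 2a) without G418, exposed to 3-fold compound dilutions for 72 h at 37 °C. Luciferase activity measured; EC50 by non-linear regression.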

[4] = molecular target: genotype 3a (VRL-69) NS5bΔ21 polymerase (Hepatitis C virus genotype 3a, UniProt Q81258); test: HCV polymerase inhibition assay, genotype 3a; type: biochemical, HCV genotype 3a (VRL-69)
Experimental: HCV polymerase reactions were carried out using a modified method of Howe et al., Antimicrobial Agents and Chemotherapy 2004 48(12): 4813-4821. Reactions contained a final concentration of, 0.5% DMSO, 50 nM, 1b (BK) NS5bΔ21, 20 mM Tris-HCl pH 7.5, 5 mM MgCl2, 5 mM MnCl2, 3 mM DTT, 0.05% BSA, 0.2 U/μL RNasin, 10 μg/mL Poly(rC) template, GTP (at Km) and 0.05 μCi/μL ^33P-GTP in a total reaction volume of 50 μL. Compounds were tested in a three fold dilution series, for example starting from 50 μM. Reactions were initiated with the addition of GTP and terminated after 1 hour with 50 μL ice cold 0.2 M EDTA. Terminated reactions were transferred to DEAE 96-well filter plates, unincorporated nucleotides washed from the filters and 50 μL scintillation fluid added prior to reading on a scintillation counter. Similarly, a genotype 3a (VRL-69) NS5bΔ21 polymerase enzyme assay was conducted using essentially the same method.
The compound concentration that reduced ^33P-GTP incorporation by 50% (IC50) was calculated using non-linear regression.

1b (BK) NS5bΔ21 = 1b (BK) NS5bΔ21 (Hepatitis C virus genotype 1b (isolate BK) (HCV), UniProt P26663); test: HCV polymerase inhibition assay, genotype 1b; type: biochemical, HCV genotype 1b (BK)
In short: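 NS5bΔ21 (50 nM) in Tris-HCl pH 7.5 with Mg2+/Mn2+, DTT, BSA, 0.5% DMSO, poly(rC) template, GTP at Km and ^33P-GTP; 3-fold compound dilutions. GTP-started reactions stopped with EDTA after 1 h; incorporation read by DEAE filter scintillation counting. IC50 by non-linear regression; 3a enzyme run the same way.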

[5] = Hepatitis C virus, 72 hours, luciferase, read-out: genotype 1b EC50 (range class)
[6] = Hepatitis C virus, read-out: Replicon 1b EC50
[7] = genotype 3a, read-out: 3a NS5b polymerase IC50
[8] = 1b (BK) NS5bΔ21, 33P-GTP incorporation, read-out: 1b polymerase IC50 (range class)
[9] = genotype 1b, read-out: 1b NS5b polymerase IC50

Sequence of 1b (BK) NS5bΔ21 (P26663 2420-2989): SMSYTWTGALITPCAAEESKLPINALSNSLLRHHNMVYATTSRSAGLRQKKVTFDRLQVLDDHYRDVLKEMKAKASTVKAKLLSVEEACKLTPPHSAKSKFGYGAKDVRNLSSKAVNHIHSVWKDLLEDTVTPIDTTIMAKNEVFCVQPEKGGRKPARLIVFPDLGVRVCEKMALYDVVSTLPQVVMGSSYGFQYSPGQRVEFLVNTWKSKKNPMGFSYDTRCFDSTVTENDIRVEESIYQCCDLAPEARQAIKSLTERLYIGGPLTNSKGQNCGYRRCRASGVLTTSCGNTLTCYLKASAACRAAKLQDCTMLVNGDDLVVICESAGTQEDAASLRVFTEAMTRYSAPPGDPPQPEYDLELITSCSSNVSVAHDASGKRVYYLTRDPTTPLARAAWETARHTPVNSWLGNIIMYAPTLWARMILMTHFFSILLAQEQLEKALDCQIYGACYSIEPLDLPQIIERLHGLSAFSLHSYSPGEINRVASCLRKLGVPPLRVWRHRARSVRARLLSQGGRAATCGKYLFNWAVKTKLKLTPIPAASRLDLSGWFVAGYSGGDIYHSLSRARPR
Sequence of genotype 3a (VRL-69) NS5bΔ21 polymerase (Q81258 whole entry, looked up, stated change not applied): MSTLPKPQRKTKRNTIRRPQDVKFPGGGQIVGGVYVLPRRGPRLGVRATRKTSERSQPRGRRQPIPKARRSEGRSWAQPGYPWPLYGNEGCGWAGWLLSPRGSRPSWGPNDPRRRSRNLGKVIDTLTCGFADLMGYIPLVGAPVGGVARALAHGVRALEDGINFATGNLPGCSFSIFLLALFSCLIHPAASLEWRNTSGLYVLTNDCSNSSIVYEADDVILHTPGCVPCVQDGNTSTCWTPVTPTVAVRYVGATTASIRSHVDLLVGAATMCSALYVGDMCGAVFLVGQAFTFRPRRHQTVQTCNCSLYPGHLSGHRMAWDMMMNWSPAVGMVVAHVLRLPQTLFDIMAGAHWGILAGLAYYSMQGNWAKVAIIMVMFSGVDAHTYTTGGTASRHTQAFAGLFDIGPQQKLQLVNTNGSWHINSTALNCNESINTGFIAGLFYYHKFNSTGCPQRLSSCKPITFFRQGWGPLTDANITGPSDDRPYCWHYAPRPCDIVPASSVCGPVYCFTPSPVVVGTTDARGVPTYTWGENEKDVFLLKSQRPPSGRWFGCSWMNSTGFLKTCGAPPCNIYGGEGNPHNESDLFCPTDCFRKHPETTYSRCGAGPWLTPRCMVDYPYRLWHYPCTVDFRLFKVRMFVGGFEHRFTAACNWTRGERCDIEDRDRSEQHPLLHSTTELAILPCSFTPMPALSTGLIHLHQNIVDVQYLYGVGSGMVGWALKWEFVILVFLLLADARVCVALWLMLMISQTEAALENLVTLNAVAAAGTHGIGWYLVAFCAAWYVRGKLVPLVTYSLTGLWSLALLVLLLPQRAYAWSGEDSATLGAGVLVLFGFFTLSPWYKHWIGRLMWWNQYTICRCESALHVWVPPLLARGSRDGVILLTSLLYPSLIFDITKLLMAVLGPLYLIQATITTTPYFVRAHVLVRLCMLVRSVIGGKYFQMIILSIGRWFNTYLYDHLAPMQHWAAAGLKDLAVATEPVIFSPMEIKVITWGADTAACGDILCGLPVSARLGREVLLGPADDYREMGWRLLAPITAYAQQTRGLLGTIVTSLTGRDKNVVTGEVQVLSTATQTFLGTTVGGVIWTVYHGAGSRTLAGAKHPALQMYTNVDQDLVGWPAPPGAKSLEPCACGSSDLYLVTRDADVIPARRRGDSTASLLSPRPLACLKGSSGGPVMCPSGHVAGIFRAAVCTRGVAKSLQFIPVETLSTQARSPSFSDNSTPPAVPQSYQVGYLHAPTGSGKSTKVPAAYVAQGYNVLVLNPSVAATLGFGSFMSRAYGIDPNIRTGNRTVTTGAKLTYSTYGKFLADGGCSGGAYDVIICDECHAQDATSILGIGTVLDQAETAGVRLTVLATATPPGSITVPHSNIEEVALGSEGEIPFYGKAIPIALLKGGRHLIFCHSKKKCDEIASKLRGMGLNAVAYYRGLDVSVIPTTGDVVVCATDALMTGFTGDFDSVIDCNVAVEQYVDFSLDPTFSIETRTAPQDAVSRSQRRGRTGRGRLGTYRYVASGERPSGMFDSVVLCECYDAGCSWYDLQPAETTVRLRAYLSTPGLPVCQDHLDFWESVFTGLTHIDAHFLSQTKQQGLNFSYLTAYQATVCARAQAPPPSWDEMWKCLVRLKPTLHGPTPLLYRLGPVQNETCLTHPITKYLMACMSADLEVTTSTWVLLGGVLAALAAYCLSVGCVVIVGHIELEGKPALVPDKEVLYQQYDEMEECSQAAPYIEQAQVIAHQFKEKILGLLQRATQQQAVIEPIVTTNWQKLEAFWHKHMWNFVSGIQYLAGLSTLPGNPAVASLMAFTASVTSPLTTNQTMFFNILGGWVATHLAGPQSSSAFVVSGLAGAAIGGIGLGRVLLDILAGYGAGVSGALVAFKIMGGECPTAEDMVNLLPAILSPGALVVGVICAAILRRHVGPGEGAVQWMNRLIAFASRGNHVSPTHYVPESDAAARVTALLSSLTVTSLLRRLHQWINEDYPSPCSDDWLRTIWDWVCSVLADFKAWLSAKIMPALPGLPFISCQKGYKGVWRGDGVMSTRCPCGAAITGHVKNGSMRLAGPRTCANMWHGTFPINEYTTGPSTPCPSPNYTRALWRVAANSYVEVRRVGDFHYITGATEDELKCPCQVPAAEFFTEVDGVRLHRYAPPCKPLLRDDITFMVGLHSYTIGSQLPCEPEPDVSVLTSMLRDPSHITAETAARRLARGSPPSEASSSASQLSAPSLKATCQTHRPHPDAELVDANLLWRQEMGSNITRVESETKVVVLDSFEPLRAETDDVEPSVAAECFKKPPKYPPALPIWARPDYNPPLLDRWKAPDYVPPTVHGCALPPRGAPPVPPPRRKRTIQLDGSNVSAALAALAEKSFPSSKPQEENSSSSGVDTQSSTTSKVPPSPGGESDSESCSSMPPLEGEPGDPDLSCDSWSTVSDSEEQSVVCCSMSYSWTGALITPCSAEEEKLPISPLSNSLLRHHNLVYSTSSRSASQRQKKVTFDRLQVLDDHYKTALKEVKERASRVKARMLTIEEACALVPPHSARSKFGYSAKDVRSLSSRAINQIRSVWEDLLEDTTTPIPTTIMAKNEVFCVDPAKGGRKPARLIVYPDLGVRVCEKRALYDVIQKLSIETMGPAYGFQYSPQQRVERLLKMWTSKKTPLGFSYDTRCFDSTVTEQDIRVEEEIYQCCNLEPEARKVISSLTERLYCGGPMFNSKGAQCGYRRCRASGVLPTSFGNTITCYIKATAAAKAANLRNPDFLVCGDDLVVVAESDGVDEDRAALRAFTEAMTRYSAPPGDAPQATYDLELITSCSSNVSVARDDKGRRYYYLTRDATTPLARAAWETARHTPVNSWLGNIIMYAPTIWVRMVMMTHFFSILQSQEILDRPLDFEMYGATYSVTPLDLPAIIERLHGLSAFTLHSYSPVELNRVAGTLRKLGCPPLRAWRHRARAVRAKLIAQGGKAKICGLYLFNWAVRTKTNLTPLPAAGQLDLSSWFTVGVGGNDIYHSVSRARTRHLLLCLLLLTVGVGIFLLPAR

## CCN(c1cc2nn(-c3ccc(Oc4ccccc4F)cc3)c(C(=O)NC)c2cc1C1CC1)S(C)(=O)=O [Compound 28]
[1]; Hepatitis C virus
  EC50: 200 nM
[2]; Hepatitis C virus
  EC50: 740 nM
[3]; [5]
  EC50: < 990 nM
[3]; [6]
  EC50: 100 nM
[4]; [7]
  IC50: 20 nM
1b (BK) NS5bΔ21; [8]
  IC50: < 990 nM
1b (BK) NS5bΔ21; [9]
  IC50: 120 nM

## CNC(=O)c1c2cc(C3CC3)c(N(CCCNC(=O)c3cnn(C)c3C)S(C)(=O)=O)cc2nn1-c1ccc(Br)cc1 [Compound 180]
[1]; Hepatitis C virus
  EC50: 1110 nM
[2]; Hepatitis C virus
  EC50: 570 nM
[3]; [5]
  EC50: < 990 nM
[3]; [6]
  EC50: 140 nM
[4]; [7]
  IC50: 50 nM
1b (BK) NS5bΔ21; [8]
  IC50: < 990 nM
1b (BK) NS5bΔ21; [9]
  IC50: 370 nM

## CNC(=O)c1c2cc(C3CC3)c(N(CCCO)S(C)(=O)=O)cc2nn1-c1ccc(Br)cc1 [Compound 4, 2-(4-bromophenyl)-5-cyclopropyl-6-[(3-hydroxypropyl)(methylsulfonyl)amino]-N-methyl-2H-indazole-3-carboxamide]
[1]; Hepatitis C virus
  EC50: 940 nM
[2]; Hepatitis C virus
  EC50: 210 nM
[3]; [5]
  EC50: < 990 nM
[3]; [6]
  EC50: 90 nM
[4]; [7]
  IC50: 10 nM
1b (BK) NS5bΔ21; [8]
  IC50: < 990 nM
1b (BK) NS5bΔ21; [9]
  IC50: 170 nM

## CNC(=O)c1c2cc(C3CC3)c(N(CCCNC(=O)C3CCC3)S(C)(=O)=O)cc2nn1-c1ccc(Br)cc1 [Compound 62]
[1]
  EC50: 2860 nM
[2]
  EC50: 80 nM
[3]; read-out: Replicon 1b EC50
  EC50: 170 nM
[4]; [7]
  IC50: 50 nM
1b (BK) NS5bΔ21; [9]
  IC50: 180 nM

## CNC(=O)c1c2cc(C3CC3)c(N(CCCNC(=O)c3cccc(OC)c3F)S(C)(=O)=O)cc2nn1-c1ccc(Br)cc1 [Compound 189]
[1]; Hepatitis C virus
  EC50: 230 nM
[2]; Hepatitis C virus
  EC50: 80 nM
[3]; [5]
  EC50: < 990 nM
[3]; [6]
  EC50: 30 nM
[4]; [7]
  IC50: 50 nM
1b (BK) NS5bΔ21; [8]
  IC50: < 990 nM
1b (BK) NS5bΔ21; [9]
  IC50: 130 nM

## CNC(=O)c1c2cc(C3CC3)c(N(CCCNC(=O)c3ccnc(OC)c3)S(C)(=O)=O)cc2nn1-c1ccc(Br)cc1 [Compound 177]
[1]; Hepatitis C virus
  EC50: 310 nM
[2]; Hepatitis C virus
  EC50: 110 nM
[3]; [5]
  EC50: < 990 nM
[3]; [6]
  EC50: 70 nM
[4]; [7]
  IC50: 60 nM
1b (BK) NS5bΔ21; [8]
  IC50: < 990 nM
1b (BK) NS5bΔ21; [9]
  IC50: 280 nM

## CNC(=O)c1c2cc(C3CC3)c(N(CCCNC(=O)c3ccoc3)S(C)(=O)=O)cc2nn1-c1ccc(Nc2ccc(F)cc2)cc1 [Compound 120]
[1]; Hepatitis C virus
  EC50: 14400 nM
[2]; Hepatitis C virus
  EC50: 3690 nM
[3]; [5]
  EC50: < 990 nM
[3]; [6]
  EC50: 90 nM
[4]
  IC50: 80 nM
1b (BK) NS5bΔ21; [8]
  IC50: < 990 nM
1b (BK) NS5bΔ21; [9]
  IC50: 110 nM

## CNC(=O)c1c2cc(C3CC3)c(N(CCCNC(=O)C(F)(F)F)S(C)(=O)=O)cc2nn1-c1ccc(Br)cc1 [Compound 172]
[1]; Hepatitis C virus
  EC50: 1830 nM
[2]; Hepatitis C virus
  EC50: 60 nM
[3]; [5]
  EC50: < 990 nM
[3]; [6]
  EC50: 60 nM
[4]; [7]
  IC50: 40 nM
1b (BK) NS5bΔ21; [8]
  IC50: < 990 nM
1b (BK) NS5bΔ21; [9]
  IC50: 110 nM

## CNC(=O)c1c2cc(C3CC3)c(N(CCCNC(=O)c3ncoc3C)S(C)(=O)=O)cc2nn1-c1ccc(Br)cc1 [Compound 174]
[1]; Hepatitis C virus
  EC50: 1730 nM
[2]; Hepatitis C virus
  EC50: 60 nM
[3]; [5]
  EC50: < 990 nM
[3]; [6]
  EC50: 110 nM
1b (BK) NS5bΔ21; [8]
  IC50: < 990 nM

## C=CCN(c1cc2nn(-c3ccc(Br)cc3)c(C(=O)NC)c2cc1C1CC1)S(C)(=O)=O [Compound 98]
[1]
  EC50: 460 nM
[2]
  EC50: 160 nM
[3]; read-out: Replicon 1b EC50
  EC50: 80 nM
[4]; [7]
  IC50: 30 nM
1b (BK) NS5bΔ21; [9]
  IC50: 100 nM

## CNC(=O)c1c2cc(C3CC3)c(N(CCC3COC(C)(C)OC3)S(C)(=O)=O)cc2nn1-c1ccc(Cl)cc1 [Compound 235]
[1]; Hepatitis C virus
  EC50: 140 nM
[2]; Hepatitis C virus
  EC50: 280 nM
[3]; [5]
  EC50: < 990 nM
[3]; [6]
  EC50: 40 nM
[4]; [7]
  IC50: 30 nM
1b (BK) NS5bΔ21; [8]
  IC50: < 990 nM
1b (BK) NS5bΔ21; [9]
  IC50: 90 nM

## CNC(=O)c1c2cc(C3CC3)c(N(CCCNC(=O)[C@H]3CCC[C@@H]3C(=O)OC)S(C)(=O)=O)cc2nn1-c1ccc(Br)cc1 [Compound 216]
[1]; Hepatitis C virus
  EC50: 680 nM
[2]; Hepatitis C virus
  EC50: 130 nM
[3]; [5]
  EC50: < 990 nM
[3]; [6]
  EC50: 40 nM
[4]; [7]
  IC50: 20 nM
1b (BK) NS5bΔ21; [8]
  IC50: < 990 nM
1b (BK) NS5bΔ21; [9]
  IC50: 180 nM

## CNC(=O)c1c2cc(C3CC3)c(N(CCCNS(C)(=O)=O)S(C)(=O)=O)cc2nn1-c1ccc(Br)cc1 [Compound 134]
[1]; Hepatitis C virus
  EC50: 5020 nM
[2]; Hepatitis C virus
  EC50: 540 nM
[3]; [5]
  EC50: < 990 nM
[3]; [6]
  EC50: 110 nM
[4]; [7]
  IC50: 30 nM
1b (BK) NS5bΔ21; [8]
  IC50: < 990 nM
1b (BK) NS5bΔ21; [9]
  IC50: 90 nM

## CNC(=O)c1c2cc(C3CC3)c(N(CCCNC(=O)C(C)C)S(C)(=O)=O)cc2nn1-c1ccc(Br)cc1 [Compound 156]
[1]; Hepatitis C virus
  EC50: 1510 nM
[2]; Hepatitis C virus
  EC50: 210 nM
[3]; [5]
  EC50: < 990 nM
[3]; [6]
  EC50: 210 nM
[4]; [7]
  IC50: 70 nM
1b (BK) NS5bΔ21; [8]
  IC50: < 990 nM
1b (BK) NS5bΔ21; [9]
  IC50: 250 nM

## CNC(=O)c1c2cc(C3CC3)c(N(CCCN3CCCCC3)S(C)(=O)=O)cc2nn1-c1ccc(Oc2ccc(F)cc2)cc1 [Compound 111]
[1]; Hepatitis C virus
  EC50: 2050 nM
[2]; Hepatitis C virus
  EC50: 2920 nM
[3]; [5]
  EC50: < 990 nM
[3]; [6]
  EC50: 340 nM
[4]; [7]
  IC50: 260 nM
1b (BK) NS5bΔ21; [8]
  IC50: 1000 to 9990 nM
1b (BK) NS5bΔ21; [9]
  IC50: 1170 nM

## CNC(=O)c1c2cc(C3CC3)c(N(CCCSC)S(C)(=O)=O)cc2nn1-c1ccc(Br)cc1 [Compound 99, 2-(4-bromophenyl)-5-cyclopropyl-N-methyl-6-[3-methylsulfanylpropyl(methylsulfonyl)amino]-2H-indazole-3-carboxamide]
[1]; Hepatitis C virus
  EC50: 1080 nM
[2]; Hepatitis C virus
  EC50: 430 nM
[3]; [5]
  EC50: < 990 nM
[3]; [6]
  EC50: 70 nM
[4]; [7]
  IC50: 20 nM
1b (BK) NS5bΔ21; [8]
  IC50: < 990 nM
1b (BK) NS5bΔ21; [9]
  IC50: 90 nM

## CNC(=O)c1c2cc(C3CC3)c(N(CCCNC(=O)c3ccccc3)S(C)(=O)=O)cc2nn1-c1ccc(Br)cc1 [Compound 166]
[1]; Hepatitis C virus
  EC50: 340 nM
[2]; Hepatitis C virus
  EC50: 20 nM
[3]; [5]
  EC50: < 990 nM
[3]; [6]
  EC50: 20 nM
[4]; [7]
  IC50: 30 nM
1b (BK) NS5bΔ21; [8]
  IC50: < 990 nM
1b (BK) NS5bΔ21; [9]
  IC50: 160 nM

## CNC(=O)c1c2cc(C3CC3)c(N(CCC(F)(F)F)S(C)(=O)=O)cc2nn1-c1ccc(Cl)cc1 [Compound 245]
[3]; [5]
  EC50: < 990 nM
1b (BK) NS5bΔ21; [8]
  IC50: < 990 nM

## CCN(c1cc2nn(-c3ccc(F)cc3)c(C(=O)NC)c2cc1C1=CCCC1)S(C)(=O)=O [Compound 73, 5-(Cyclopent-1-en-1-yl)-6-[ethyl(methylsulfonyl)amino]-2-(4-fluorophenyl)-N-methyl-2H-indazole-3-carboxamide]
[3]; [5]
  EC50: 1000 to 9990 nM
1b (BK) NS5bΔ21; [8]
  IC50: 10000 to 50000 nM
